# In US10759783B2, “Biaryl inhibitors of Bruton'S tyrosine kinase” (BIOGEN MA INC., priority 2013, dated 2020):
# Molecular target: T1, BTK enzyme (Homo sapiens, UniProt Q06187)
# T1 construct: purchased Upstate 14-552
# Assay: In vitro BTK kinase assay: BTK-POLYGAT-LS assay
# Format: biochemical
# Settings: ATP 10 μM, read-out: IC50 (10uMATP)
# Experimental: The purpose of the BTK in vitro assay is to determine compound potency against BTK through the measurement of IC50. […] For a typical assay, a 24 μL aliquot of a ATP/peptide master mix (final concentration; ATP 10 μM, polyGAT 100 nM) in kinase buffer (10 mM Tris-HCl pH 7.5, 10 mM MgCl2, 200 μM Na3PO4, 5 mM DTT, 0.01% Triton X-100, and 0.2 mg/ml casein) is added to each well. […] The assay is incubated for 30 minutes before being stopped with 28 μL of a 50 mM EDTA solution. […] The plate is covered and incubated for 45 minutes at room temperature.
# T1 sequence (Q06187 whole entry): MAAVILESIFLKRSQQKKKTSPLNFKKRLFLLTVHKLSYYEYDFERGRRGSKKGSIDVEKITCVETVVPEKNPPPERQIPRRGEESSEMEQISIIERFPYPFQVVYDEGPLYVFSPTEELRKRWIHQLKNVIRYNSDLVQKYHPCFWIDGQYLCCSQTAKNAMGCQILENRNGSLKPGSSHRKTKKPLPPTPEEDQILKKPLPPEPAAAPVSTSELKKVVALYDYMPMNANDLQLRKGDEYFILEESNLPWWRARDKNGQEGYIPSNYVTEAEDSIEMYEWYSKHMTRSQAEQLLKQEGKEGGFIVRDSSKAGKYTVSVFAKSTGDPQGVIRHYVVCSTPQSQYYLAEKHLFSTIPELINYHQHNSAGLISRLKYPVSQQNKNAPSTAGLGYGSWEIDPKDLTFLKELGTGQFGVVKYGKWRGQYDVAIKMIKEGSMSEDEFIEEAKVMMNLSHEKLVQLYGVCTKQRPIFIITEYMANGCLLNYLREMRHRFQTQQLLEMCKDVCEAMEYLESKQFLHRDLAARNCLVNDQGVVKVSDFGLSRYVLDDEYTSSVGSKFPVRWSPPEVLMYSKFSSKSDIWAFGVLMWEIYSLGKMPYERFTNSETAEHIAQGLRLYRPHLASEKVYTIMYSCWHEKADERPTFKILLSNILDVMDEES
row,SMILES,IC50
1,"Cc1cc(-c2ccnc(Nc3cnn(C)c3)n2)ccc1CNC(=O)c1ccc(Cl)c(Cl)c1 [Example I-8, 3,4-dichloro-N-(2-methyl-4-(2-((1-methyl-1H-pyrazol-4-yl)amino)pyrimidin-4-yl)benzyl)benzamide]",< 10 nM
2,"Cc1cc(-c2ccnc(Nc3cnn(C)c3)n2)ccc1CNC(=O)[C@H]1CC[C@H](C(F)(F)F)CC1 [Example I-11, trans-N-(2-methyl-4-(2-((1-methyl-1H-pyrazol-4-yl)amino)pyrimidin-4-yl)benzyl)-4-(trifluoromethyl)cyclohexanecarboxamide]",10 to 99 nM
3,"Cc1cc(-c2ccnc(Nc3cnn(C)c3)n2)ccc1CNC(=O)c1cc2c(s1)CCNC2C (stereo not drawn) [Example I-14, 4-methyl-N-(2-methyl-4-(2-((1-methyl-1H-pyrazol-4-yl)amino)pyrimidin-4-yl)benzyl)-4,5,6,7-tetrahydrothieno[3,2-c]pyridine-2-carboxamide]",10 to 99 nM
4,"Cc1cc(-c2ccnc(Nc3cnn(C)c3)n2)ccc1CNC(=O)C1CCN(C)CC1 [Example I-16, 1-methyl-N-(2-methyl-4-(2-((1-methyl-1H-pyrazol-4-yl)amino)pyrimidin-4-yl)benzyl)piperidine-4-carboxamide]",> 10000 nM
5,"Cc1cc(-c2ccnc(Nc3cnn(C)c3)n2)ccc1CNC(=O)[C@H]1CC[C@@H](C(F)(F)F)CC1 [Example I-17, cis-N-(2-methyl-4-(2-((1-methyl-1H-pyrazol-4-yl)amino)pyrimidin-4-yl)benzyl)-4-(trifluoromethyl)cyclohexanecarboxamide]",100 to 999 nM
6,"Cc1cc(-c2ccnc(Nc3cnn(C)c3)n2)ccc1CNC(=O)c1cnoc1C [Example I-18, 5-methyl-N-(2-methyl-4-(2-((1-methyl-1H-pyrazol-4-yl)amino)pyrimidin-4-yl)benzyl)isoxazole-4-carboxamide]",100 to 999 nM
7,"Cc1cc(-c2ccnc(Nc3cnn(C)c3)n2)ccc1CNC(=O)NC12CCC(CC1)CC2 [Example I-22, 1-(bicyclo[2.2.2]octan-1-yl)-3-(2-methyl-4-(2-((1-methyl-1H-pyrazol-4-yl)amino)pyrimidin-4-yl)benzyl)urea]",10 to 99 nM
8,"Cc1cc(-c2ccnc(NC3CCN(C)CC3)n2)ccc1CNC(=O)c1cnc(C(C)(C)C)s1 [Example I-25, 2-(tert-butyl)-N-(2-methyl-4-(2-((1-methylpiperidin-4-yl)amino)pyrimidin-4-yl)benzyl)thiazole-5-carboxamide]",1000 to 10000 nM
9,"Cc1cc(-c2ccnc(NC3CCOCC3)n2)ccc1CNC(=O)c1cnc(C(C)(C)C)s1 [Example I-26, 2-(tert-butyl)-N-(2-methyl-4-(2-((tetrahydro-2H-pyran-4-yl)amino)pyrimidin-4-yl)benzyl)thiazole-5-carboxamide]",1000 to 10000 nM
10,"Cc1cc(-c2ccnc(N[C@H](C)C3CCCCC3)n2)ccc1CNC(=O)c1cnc(C(C)(C)C)s1 [Example I-27, (R)-2-(tert-butyl)-N-(4-(2-((1-cyclohexylethyl)amino)pyrimidin-4-yl)-2-methylbenzyl)thiazole-5-carboxamide]",> 10000 nM
11,"Cc1cc(-c2ccnc(N[C@@H](C)C3CCCCC3)n2)ccc1CNC(=O)c1cnc(C(C)(C)C)s1 [Example I-28, (S)-2-(tert-butyl)-N-(4-(2-((1-cyclohexylethyl)amino)pyrimidin-4-yl)-2-methylbenzyl)thiazole-5-carboxamide]",> 10000 nM
12,"Cc1cc(-c2ccnc(NC(C)c3ccncc3)n2)ccc1CNC(=O)c1cnc(C(C)(C)C)s1 (stereo not drawn) [Example I-29, 2-(tert-butyl)-N-(2-methyl-4-(2-((1-(pyridin-4-yl)ethyl)amino)pyrimidin-4-yl)benzyl)thiazole-5-carboxamide]",1000 to 10000 nM
13,"Cc1cc(-c2ccnc(NC3CCS(=O)(=O)CC3)n2)ccc1CNC(=O)c1cnc(C(C)(C)C)s1 [Example I-30, 2-(tert-butyl)-N-(4-(2-((1,1-dioxidotetrahydro-2H-thiopyran-4-yl)amino)pyrimidin-4-yl)-2-methylbenzyl)thiazole-5-carboxamide]",1000 to 10000 nM
14,"Cc1cc(-c2ccnc(NCC3CCS(=O)(=O)CC3)n2)ccc1CNC(=O)c1cnc(C(C)(C)C)s1 [Example I-31, 2-(tert-butyl)-N-(4-(2-(((1,1-dioxidotetrahydro-2H-thiopyran-4-yl)methyl)amino)pyrimidin-4-yl)-2-methylbenzyl)thiazole-5-carboxamide]",100 to 999 nM
15,"Cc1cc(-c2ccnc(NCc3ccncc3)n2)ccc1CNC(=O)c1cnc(C(C)(C)C)s1 [Example I-32, 2-(tert-butyl)-N-(2-methyl-4-(2-((pyridin-4-ylmethyl)amino)pyrimidin-4-yl)benzyl)thiazole-5-carboxamide]",100 to 999 nM
16,"CNc1nccc(-c2ccc(CNC(=O)c3cnc(C(C)(C)C)s3)c(C)c2)n1 [Example I-33, 2-(tert-butyl)-N-(2-methyl-4-(2-(methylamino)pyrimidin-4-yl)benzyl)thiazole-5-carboxamide]",100 to 999 nM
17,"CCNc1nccc(-c2ccc(CNC(=O)c3cnc(C(C)(C)C)s3)c(C)c2)n1 [Example I-34, 2-(tert-butyl)-N-(4-(2-(ethylamino)pyrimidin-4-yl)-2-methylbenzyl)thiazole-5-carboxamide]",10 to 99 nM

row,SMILES,IC50
1,"Cc1cc(-c2ccnc(NC(C)C)n2)ccc1CNC(=O)c1cnc(C(C)(C)C)s1 [Example I-35, 2-(tert-butyl)-N-(4-(2-(isopropylamino)pyrimidin-4-yl)-2-methylbenzyl)thiazole-5-carboxamide]",1000 to 10000 nM
2,"Cc1cc(-c2ccnc(Nc3c(C)nn(C)c3C)n2)ccc1CNC(=O)c1cnc(C(C)(C)C)s1 [Example I-53, 2-(tert-butyl)-N-(2-methyl-4-(2-((1,3,5-trimethyl-1H-pyrazol-4-yl)amino)pyrimidin-4-yl)benzyl)thiazole-5-carboxamide]",100 to 999 nM
3,"Cc1cc(-c2ccnc(Nc3conc3C)n2)ccc1CNC(=O)c1cnc(C(C)(C)C)s1 [Example I-57, 2-(tert-butyl)-N-(2-methyl-4-(2-((3-methylisoxazol-4-yl)amino)pyrimidin-4-yl)benzyl)thiazole-5-carboxamide]",< 10 nM
4,"Cc1cc(-c2ccnc(Nc3cn(C)nn3)n2)ccc1CNC(=O)c1cnc(C(C)(C)C)s1 [Example I-58, 2-(tert-butyl)-N-(2-methyl-4-(2-((1-methyl-1H-1,2,3-triazol-4-yl)amino)pyrimidin-4-yl)benzyl)thiazole-5-carboxamide]",10 to 99 nM
5,"Cc1nnc(Nc2nccc(-c3ccc(CNC(=O)c4cnc(C(C)(C)C)s4)c(C)c3)n2)s1 [Example I-59, 2-(tert-butyl)-N-(2-methyl-4-(2-((5-methyl-1,3,4-thiadiazol-2-yl)amino)pyrimidin-4-yl)benzyl)thiazole-5-carboxamide]",10 to 99 nM
6,"Cc1cc(-c2ccnc(Nc3ccccn3)n2)ccc1CNC(=O)c1cnc(C(C)(C)C)s1 [Example I-60, 2-(tert-butyl)-N-(2-methyl-4-(2-(pyridin-2-ylamino)pyrimidin-4-yl)benzyl)thiazole-5-carboxamide]",10 to 99 nM
7,"Cc1cc(-c2ccnc(Nc3ccc(N(C)C)cn3)n2)ccc1CNC(=O)c1cnc(C(C)(C)C)s1 [Example I-61, 2-(tert-butyl)-N-(4-(2-((5-(dimethylamino)pyridin-2-yl)amino)pyrimidin-4-yl)-2-methylbenzyl)thiazole-5-carboxamide]",10 to 99 nM
8,"Cc1cc(-c2cc(Nc3nnn(C)n3)ncn2)ccc1CNC(=O)c1cnc(C(C)(C)C)s1 [Example I-68, 2-(tert-butyl)-N-(2-methyl-4-(6-((2-methyl-2H-tetrazol-5-yl)amino)pyrimidin-4-yl)benzyl)thiazole-5-carboxamide]",10 to 99 nM
9,"Cc1cc(-c2ccnc(NC(=O)C3CCN(C)CC3)c2)ccc1CNC(=O)c1cnc(C(C)(C)C)s1 [Example I-71, 2-(tert-butyl)-N-(2-methyl-4-(2-(1-methylpiperidine-4-carboxamido)pyridin-4-yl)benzyl)thiazole-5-carboxamide]",10 to 99 nM
10,"Cc1cc(-c2ccnc(N)n2)ccc1CNC(=O)c1cc2n(n1)CCCNC2 [Example I-72, N-(4-(2-aminopyrimidin-4-yl)-2-methylbenzyl)-5,6,7,8-tetrahydro-4H-pyrazolo[1,5-a][1,4]diazepine-2-carboxamide]",1000 to 10000 nM
11,"Cc1cc(-c2ccnc(N)n2)ccc1CNC(=O)c1nc2c(s1)CCNCC2 [Example I-73, N-(4-(2-aminopyrimidin-4-yl)-2-methylbenzyl)-5,6,7,8-tetrahydro-4H-thiazolo[4,5-d]azepine-2-carboxamide]",1000 to 10000 nM
12,"Cc1cc(-c2ccnc(N)n2)ccc1CNC(=O)c1cn2c(n1)CNCC2 [Example I-74, N-(4-(2-aminopyrimidin-4-yl)-2-methylbenzyl)-5,6,7,8-tetrahydroimidazo[1,2-a]pyrazine-2-carboxamide]",1000 to 10000 nM
13,"Cc1cc(-c2ccnc(N)n2)ccc1CNC(=O)c1nc2c(s1)CNCC2 [Example I-75, N-(4-(2-aminopyrimidin-4-yl)-2-methylbenzyl)-4,5,6,7-tetrahydrothiazolo[5,4-c]pyridine-2-carboxamide]",1000 to 10000 nM
14,"Cc1cc(-c2ccnc(N)n2)ccc1CNC(=O)c1cc2n(n1)CCNC2 [Example I-76, N-(4-(2-aminopyrimidin-4-yl)-2-methylbenzyl)-4,5,6,7-tetrahydro pyrazolo[1,5-a]pyrazine-2-carboxamide]",> 10000 nM
15,"Cc1cc(-c2ccnc(N)n2)ccc1CNC(=O)c1ccc2c(c1)CCNC2 [Example I-77, N-(4-(2-aminopyrimidin-4-yl)-2-methylbenzyl)-1,2,3,4-tetrahydroisoquinoline-6-carboxamide]",1000 to 10000 nM
16,"Cc1cc(-c2ccnc(N)n2)ccc1CNC(=O)c1ccc2c(n1)CCNC2 [Example I-78, N-(4-(2-aminopyrimidin-4-yl)-2-methylbenzyl)-5,6,7,8-tetrahydro-1,6-naphthyridine-2-carboxamide]",> 10000 nM
